19 compounds from patent US20250154152A1, “INHIBITORS OF NAEGLERIA FOWLERI” (Wisconsin Alumni Research Foundation, priority 2023, published 2025) can be followed below.

The test system of the experiment is N. fowleri strain Nf69 (ATCC 30215) trophozoites. Description: Determination of EC50 values against Naegleria fowleri (growth inhibition, CellTiter Glo, 48 h). The experiment is classed as cell-based. In a few lines:
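Axenic Nf69 trophozoites in Nelson's complete medium with 10% FBS exposed to compound, initially 20–0.375 μM, for 48 h at 37 °C, 5% CO2. Viability read by CellTiter-Glo luminescence; % growth inhibition versus controls, triplicate averages fitted for EC50, with lower ranges used for very potent compounds.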

Setting [1] is: ATCC30215, N. fowleri Nf69 trophozoites, 48 h culture, 37° C., CellTiter Glo luminescence, read-out: EC50 uM against N. fowleri.
Where [2] appears, read: ATCC30215, 48 h, read-out: EC50 uM against N. fowleri.

Structures are written as SMILES. Read-outs that look alike come from different tables or passages of the source.

With `COc1ccc2nc([C@@H]3CCCN(CC4COC4)C3)n(C)c(=O)c2c1` [Compound R-14s, (R)-6-methoxy-3-methyl-2-(1-(oxetan-3-ylmethyl)piperidin-3-yl)quinazolin-4(3H)-one], the EC50 under setting [1] was more than 10 µM.
For `Cn1c([C@@H]2CCCN(CC3COC3)C2)nc2ccc(C(F)(F)F)cc2c1=O` [Compound R-14t, (R)-3-methyl-2-(1-(oxetan-3-ylmethyl)piperidin-3-yl)-6-(trifluoromethyl)quinazolin-4(3H)-one], under setting [1], the EC50 is more than 10 µM.
As to `Cn1c([C@@H]2CCCN(Cc3ccncc3)C2)nc2cc(Cl)c(Cl)cc2c1=O` [Compound R-14u, (R)-6,7-dichloro-3-methyl-2-(1-(pyridin-4-ylmethyl)piperidin-3-yl)quinazolin-4(3H)-one], the concentration giving a half-maximal response (EC50) under setting [1] was more than 10 µM.
On to `Cn1c([C@@H]2CCCN(Cc3cccnc3)C2)nc2cc(Cl)c(Cl)cc2c1=O` [Compound R-14v, (R)-6,7-dichloro-3-methyl-2-(1-(pyridin-3-ylmethyl)piperidin-3-yl)quinazolin-4(3H)-one], for which, under setting [1], the EC50 is more than 10 µM.
On the same count and under the same terms, the figure for `Cn1c([C@@H]2CCCN(Cc3ccccn3)C2)nc2cc(Cl)c(Cl)cc2c1=O` [Compound R-14w, (R)-6,7-dichloro-3-methyl-2-(1-(pyridin-2-ylmethyl)piperidin-3-yl)quinazolin-4(3H)-one] is more than 10 µM.
For `Cn1c([C@@H]2CCCN(Cc3cnccn3)C2)nc2cc(Cl)c(Cl)cc2c1=O` [Compound R-14x, (R)-6,7-dichloro-3-methyl-2-(1-(pyrazin-2-ylmethyl)piperidin-3-yl)quinazolin-4(3H)-one], the half-maximal effective concentration (EC50) under setting [1] is more than 10 µM.
Regarding `Cn1c([C@@H]2CCCN(CCO)C2)nc2cc(Cl)c(Cl)cc2c1=O` [Compound R-14z, (R)-6,7-dichloro-2-(1-(2-hydroxyethyl)piperidin-3-yl)-3-methylquinazolin-4(3H)-one], under setting [1], the EC50 is more than 10 µM.
As to `CC(C)N1CCC[C@H](c2nc3cc(Cl)c(Cl)cc3c(=O)n2C)C1` [Compound S-14a, (S)-6,7-dichloro-2-(1-isopropylpiperidin-3-yl)-3-methylquinazolin-4(3H)-one], under setting [1], the EC50 was more than 10 µM.
Take `Cn1c([C@H]2CCCN(CC3CCOCC3)C2)nc2cc(Cl)c(Cl)cc2c1=O` [Compound S-14c, (S)-6,7-dichloro-3-methyl-2-(1-((tetrahydro-2H-pyran-4-yl)methyl)piperidin-3-yl)quinazolin-4(3H)-one]: the EC50 under setting [1] was more than 10 µM.
With `Cn1c([C@H]2CCCN(CCN3CCCC3)C2)nc2cc(Cl)c(Cl)cc2c1=O` [Compound S-14cc, (S)-6,7-dichloro-3-methyl-2-(1-(2-(pyrrolidin-1-yl)ethyl)piperidin-3-yl)quinazolin-4(3H)-one], the EC50 under setting [1] was more than 10 µM.
In the case of `Cn1c([C@H]2CCCN(CC3COC3)C2)nc2cc(Cl)c(Cl)cc2c1=O` [Compound S-14e, (S)-6,7-dichloro-3-methyl-2-(1-(oxetan-3-ylmethyl)piperidin-3-yl)quinazolin-4(3H)-one], the EC50 under setting [1] was more than 10 µM.
As to `Cn1c([C@H]2CCCN(CCO)C2)nc2cc(Cl)c(Cl)cc2c1=O` [Compound S-14y, (S)-6,7-dichloro-2-(1-(2-hydroxyethyl)piperidin-3-yl)-3-methylquinazolin-4(3H)-one], the EC50 under setting [1] was more than 10 µM.
For the compound `CCCCCCCCCCCCCCCCOP(=O)([O-])OCC[N+](C)(C)C` [Miltefosine, miltefosine, reference compound], the half-maximal effective concentration (EC50) (ATCC30215, positive control, N. fowleri Nf69 trophozoites, 48 h, CellTiter Glo, read-out: N. fowleri EC50) is 35.7 ± 9.1 µM.
On to `CN1CCC[C@@H]2c3nc4ccc(Cl)cc4c(=O)n3CC[C@H]21` [trans-10a-ent 1, (4aR,13bS)-10-chloro-4-methyl-1,2,3,4,4a,5,6,13b-octahydro-8H-[1,6]naphthyridino[5,6-b]quinazolin-8-one], for which the EC50 under setting [1] lay in the range of 0.1 to 1 µM.
On to `CN1CCC[C@H]2c3nc4ccc(Cl)cc4c(=O)n3CC[C@@H]21` [trans-10b-ent-2, (4aS,13bR)-10-chloro-4-methyl-1,2,3,4,4a,5,6,13b-octahydro-8H-[1,6]naphthyridino[5,6-b]quinazolin-8-one], for which the EC50 under setting [2] lay in the range of 1 to 10 µM.
For `CN1CCC[C@@H]2c3nc4ccc(C(F)(F)F)cc4c(=O)n3CC[C@H]21` [trans-10c-ent-1, (4aR,13bS)-4-methyl-10-(trifluoromethyl)-1,2,3,4,4a,5,6,13b-octahydro-8H-[1,6]naphthyridino[5,6-b]quinazolin-8-one], the EC50 under setting [1] was 0.1 to 1 µM.
With `CN1CCC[C@H]2c3nc4ccc(C(F)(F)F)cc4c(=O)n3CC[C@@H]21` [trans-10d-ent-2, (4aS,13bR)-4-methyl-10-(trifluoromethyl)-1,2,3,4,4a,5,6,13b-octahydro-8H-[1,6]naphthyridino[5,6-b]quinazolin-8-one], the EC50 under setting [2] is 1 to 10 µM.
For the compound `CN1CCC[C@@H]2c3nc4cc(Cl)c(Cl)cc4c(=O)n3CC[C@H]21` [trans-10e-ent-1, (4aR,13bS)-10,11-dichloro-4-methyl-1,2,3,4,4a,5,6,13b-octahydro-8H-[1,6]naphthyridino[5,6-b]quinazolin-8-one], the EC50 under setting [1] lay in the range of 0.0001 to 0.1 µM.
With `CN1CCC[C@H]2c3nc4cc(Cl)c(Cl)cc4c(=O)n3CC[C@@H]21` [trans-10f-ent-2, (4aS,13bR)-10,11-dichloro-4-methyl-1,2,3,4,4a,5,6,13b-octahydro-8H-[1,6]naphthyridino[5,6-b]quinazolin-8-one], the EC50 under setting [2] was in the range of 1 to 10 µM.

Broadly, the EC50 is the midpoint of the concentration-response curve.
